From article PMC8185074, “Anchor extension: a structure-guided approach to design cyclic peptides targeting enzyme active sites” (Nature Communications, 2021)
Peptide text beside a SMILES is read from it.

Columns and labels:
Format in all cases: biochemical
HDAC6 = target: T1, HDAC6 (Homo sapiens, UniProt Q9UBN7); assay: HDAC6 inhibition, full IC50 measurement (Reaction Biology; fluorogenic p53 peptide RHKK(Ac)AMC)
T1 construct: purchased Reaction Biology Corporation (assay run by the CRO)
T1 sequence (Q9UBN7 1-1215): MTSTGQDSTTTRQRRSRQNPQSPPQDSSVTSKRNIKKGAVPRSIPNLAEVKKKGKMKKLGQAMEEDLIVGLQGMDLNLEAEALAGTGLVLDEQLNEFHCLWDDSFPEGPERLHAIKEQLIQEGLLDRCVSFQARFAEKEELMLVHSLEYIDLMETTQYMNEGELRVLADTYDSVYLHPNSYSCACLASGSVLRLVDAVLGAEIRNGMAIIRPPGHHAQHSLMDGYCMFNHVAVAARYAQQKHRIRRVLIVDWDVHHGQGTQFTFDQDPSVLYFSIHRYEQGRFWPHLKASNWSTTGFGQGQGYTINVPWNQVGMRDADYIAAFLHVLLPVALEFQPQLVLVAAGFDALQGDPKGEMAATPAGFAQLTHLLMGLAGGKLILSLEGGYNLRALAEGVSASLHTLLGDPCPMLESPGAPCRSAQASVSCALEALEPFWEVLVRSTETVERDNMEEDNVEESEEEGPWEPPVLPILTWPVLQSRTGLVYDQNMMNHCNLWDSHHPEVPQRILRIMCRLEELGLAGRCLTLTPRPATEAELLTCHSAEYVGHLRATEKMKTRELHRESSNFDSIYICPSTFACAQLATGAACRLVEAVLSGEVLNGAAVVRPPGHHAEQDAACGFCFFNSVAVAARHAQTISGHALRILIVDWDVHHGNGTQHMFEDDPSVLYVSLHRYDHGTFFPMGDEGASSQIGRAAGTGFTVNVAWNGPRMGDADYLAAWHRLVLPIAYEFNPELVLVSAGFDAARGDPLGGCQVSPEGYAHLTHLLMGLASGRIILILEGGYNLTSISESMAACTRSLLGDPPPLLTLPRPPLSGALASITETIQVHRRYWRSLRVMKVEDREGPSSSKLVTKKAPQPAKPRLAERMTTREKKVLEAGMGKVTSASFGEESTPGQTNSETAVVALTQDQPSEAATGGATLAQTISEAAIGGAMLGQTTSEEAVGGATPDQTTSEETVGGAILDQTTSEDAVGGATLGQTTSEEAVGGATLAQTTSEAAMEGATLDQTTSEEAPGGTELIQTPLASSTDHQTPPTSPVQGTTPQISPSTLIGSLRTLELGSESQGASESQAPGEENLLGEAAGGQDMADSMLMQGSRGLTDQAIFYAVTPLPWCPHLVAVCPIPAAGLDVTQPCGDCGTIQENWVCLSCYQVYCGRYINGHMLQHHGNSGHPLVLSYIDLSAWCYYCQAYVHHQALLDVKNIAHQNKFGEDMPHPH
In short: (§1)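 Reaction: enzyme plus acoustically dispensed peptide inhibitor, 50 μM RHKK(Ac)AMC substrate, pH 8.0 Tris buffer with BSA and 1% DMSO, 1 h, 30 °C. Duplicates averaged.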

HDAC3 = target: T2, HDAC3 (Homo sapiens, UniProt O15379); assay: HDAC3 inhibition, full IC50 measurement (Reaction Biology; fluorogenic p53 peptide RHKK(Ac)AMC)
T2 construct: purchased Reaction Biology Corporation (assay run by the CRO)
T2 sequence (O15379 whole entry): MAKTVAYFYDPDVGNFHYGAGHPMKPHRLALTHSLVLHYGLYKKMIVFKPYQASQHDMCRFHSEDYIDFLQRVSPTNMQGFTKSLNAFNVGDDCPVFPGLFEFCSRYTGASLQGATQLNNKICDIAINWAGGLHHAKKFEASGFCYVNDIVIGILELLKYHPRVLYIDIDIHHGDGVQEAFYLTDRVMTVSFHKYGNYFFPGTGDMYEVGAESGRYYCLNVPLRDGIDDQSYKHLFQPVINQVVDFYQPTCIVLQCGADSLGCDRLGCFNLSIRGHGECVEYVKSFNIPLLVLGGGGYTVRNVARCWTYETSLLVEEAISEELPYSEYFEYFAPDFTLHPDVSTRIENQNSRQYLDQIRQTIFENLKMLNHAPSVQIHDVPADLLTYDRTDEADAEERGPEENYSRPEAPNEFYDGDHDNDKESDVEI
T2 sequence (Q9Y618 395-489 partner limits assumed): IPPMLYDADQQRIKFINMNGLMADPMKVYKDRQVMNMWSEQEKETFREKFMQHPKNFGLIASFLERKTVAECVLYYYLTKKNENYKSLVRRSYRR
In short: as §1

HDAC8 = target: T3, HDAC8 (Homo sapiens, UniProt Q9BY41); assay: HDAC8 inhibition, full IC50 measurement (Reaction Biology; fluorogenic p53 peptide RHKK(Ac)AMC); conditions: t1/t2 replicates
T3 construct: purchased Reaction Biology Corporation (assay run by the CRO)
T3 sequence (Q9BY41 1-377): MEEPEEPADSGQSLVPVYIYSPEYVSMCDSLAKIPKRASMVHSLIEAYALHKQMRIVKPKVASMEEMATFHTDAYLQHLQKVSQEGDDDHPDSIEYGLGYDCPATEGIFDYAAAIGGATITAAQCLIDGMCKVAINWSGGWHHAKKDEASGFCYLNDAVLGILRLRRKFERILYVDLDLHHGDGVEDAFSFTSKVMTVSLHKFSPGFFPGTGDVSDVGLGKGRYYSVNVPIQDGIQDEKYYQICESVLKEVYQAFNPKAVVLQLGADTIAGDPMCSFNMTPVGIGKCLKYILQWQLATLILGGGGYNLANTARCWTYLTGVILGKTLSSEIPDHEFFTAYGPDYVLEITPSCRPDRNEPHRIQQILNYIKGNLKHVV
In short: as §1

## N=C(N)NCCC[C@@H]1NC(=O)[C@H](Cc2c[nH]c3ccccc23)NC(=O)[C@H](CC(=O)O)NC(=O)[C@@H](CO)NC(=O)[C@H](Cc2c[nH]c3ccccc23)NC(=O)[C@H](CCCCCS)NC(=O)[C@H](CCC(N)=O)NC1=O [des4.1.0, SHA-Trp-dSer-Asp-Trp-Arg-Gln] (HELM PEPTIDE1{D.W.R.Q.[O=C([C@H](CCCCCS)N[*:1])[*:2]].W.[dS]}$PEPTIDE1,PEPTIDE1,1:R1-7:R2$$$V2.0)
HDAC6; Conc. 1.00E-05 M, t1
  HDAC6 activity raw data (signal): 7877
HDAC6; Conc. 1.00E-05 M, t2
  HDAC6 activity raw data (signal): -8060
HDAC6; Conc. 1.11E-06 M, t1
  HDAC6 activity raw data (signal): 16871
HDAC6; Conc. 1.11E-06 M, t2
  HDAC6 activity raw data (signal): 12343
HDAC6; Conc. 1.23E-07 M, t1
  HDAC6 activity raw data (signal): 204372
HDAC6; Conc. 1.23E-07 M, t2
  HDAC6 activity raw data (signal): 163263
HDAC6; Conc. 1.37E-08 M, t1
  HDAC6 activity raw data (signal): 1871464
HDAC6; Conc. 1.37E-08 M, t2
  HDAC6 activity raw data (signal): 1633652
HDAC6; Conc. 1.52E-09 M, t1
  HDAC6 activity raw data (signal): 2518833
HDAC6; Conc. 1.52E-09 M, t2
  HDAC6 activity raw data (signal): 2655286
HDAC6; Conc. 3.33E-06 M, t1
  HDAC6 activity raw data (signal): 8242
HDAC6; Conc. 3.33E-06 M, t2
  HDAC6 activity raw data (signal): -3634
HDAC6; Conc. 3.70E-07 M, t1
  HDAC6 activity raw data (signal): 49535
HDAC6; Conc. 3.70E-07 M, t2
  HDAC6 activity raw data (signal): 45420
HDAC6; Conc. 4.12E-08 M, t1
  HDAC6 activity raw data (signal): 772837
HDAC6; Conc. 4.12E-08 M, t2
  HDAC6 activity raw data (signal): 534957
HDAC6; Conc. 4.57E-09 M, t1
  HDAC6 activity raw data (signal): 2466106
HDAC6; Conc. 4.57E-09 M, t2
  HDAC6 activity raw data (signal): 2168070
HDAC6; Conc. 5.08E-10 M, t1
  HDAC6 activity raw data (signal): 2603168
HDAC6; Conc. 5.08E-10 M, t2
  HDAC6 activity raw data (signal): 2401605
HDAC3; Conc. 1.00E-05 M, t1
  HDAC3 activity raw data (signal): -1388
HDAC3; Conc. 1.00E-05 M, t2
  HDAC3 activity raw data (signal): 157
HDAC3; Conc. 1.11E-06 M, t1
  HDAC3 activity raw data (signal): 49544
HDAC3; Conc. 1.11E-06 M, t2
  HDAC3 activity raw data (signal): 53052
HDAC3; Conc. 1.23E-07 M, t1
  HDAC3 activity raw data (signal): 403506
HDAC3; Conc. 1.23E-07 M, t2
  HDAC3 activity raw data (signal): 392664
HDAC3; Conc. 1.37E-08 M, t1
  HDAC3 activity raw data (signal): 878874
HDAC3; Conc. 1.37E-08 M, t2
  HDAC3 activity raw data (signal): 905094
HDAC3; Conc. 1.52E-09 M, t1
  HDAC3 activity raw data (signal): 1051534
HDAC3; Conc. 1.52E-09 M, t2
  HDAC3 activity raw data (signal): 1009763
HDAC3; Conc. 3.33E-06 M, t1
  HDAC3 activity raw data (signal): 16525
HDAC3; Conc. 3.33E-06 M, t2
  HDAC3 activity raw data (signal): 4898
HDAC3; Conc. 3.70E-07 M, t1
  HDAC3 activity raw data (signal): 191695
HDAC3; Conc. 3.70E-07 M, t2
  HDAC3 activity raw data (signal): 162137
HDAC3; Conc. 4.12E-08 M, t1
  HDAC3 activity raw data (signal): 681441
HDAC3; Conc. 4.12E-08 M, t2
  HDAC3 activity raw data (signal): 656036
HDAC3; Conc. 4.57E-09 M, t1
  HDAC3 activity raw data (signal): 1007447
HDAC3; Conc. 4.57E-09 M, t2
  HDAC3 activity raw data (signal): 1022661
HDAC3; Conc. 5.08E-10 M, t1
  HDAC3 activity raw data (signal): 1094681
HDAC3; Conc. 5.08E-10 M, t2
  HDAC3 activity raw data (signal): 1129520
HDAC8; peptide conc. 1.00E-05 M, listed as des4.1.0_t1
  HDAC8 activity raw data (signal): 100967
HDAC8; peptide conc. 1.00E-05 M, listed as des4.1.0_t2
  HDAC8 activity raw data (signal): 38752
HDAC8; peptide conc. 1.11E-06 M, listed as des4.1.0_t1
  HDAC8 activity raw data (signal): 234716
HDAC8; peptide conc. 1.11E-06 M, listed as des4.1.0_t2
  HDAC8 activity raw data (signal): 226734
HDAC8; peptide conc. 1.23E-07 M, listed as des4.1.0_t1
  HDAC8 activity raw data (signal): 803512
HDAC8; peptide conc. 1.23E-07 M, listed as des4.1.0_t2
  HDAC8 activity raw data (signal): 713240
HDAC8; peptide conc. 1.37E-08 M, listed as des4.1.0_t1
  HDAC8 activity raw data (signal): 943537
HDAC8; peptide conc. 1.37E-08 M, listed as des4.1.0_t2
  HDAC8 activity raw data (signal): 964221
HDAC8; peptide conc. 1.52E-09 M, listed as des4.1.0_t1
  HDAC8 activity raw data (signal): 948817
HDAC8; peptide conc. 1.52E-09 M, listed as des4.1.0_t2
  HDAC8 activity raw data (signal): 953073
HDAC8; peptide conc. 3.33E-06 M, listed as des4.1.0_t1
  HDAC8 activity raw data (signal): 100659
HDAC8; peptide conc. 3.33E-06 M, listed as des4.1.0_t2
  HDAC8 activity raw data (signal): 171679
HDAC8; peptide conc. 3.70E-07 M, listed as des4.1.0_t1
  HDAC8 activity raw data (signal): 597298
HDAC8; peptide conc. 3.70E-07 M, listed as des4.1.0_t2
  HDAC8 activity raw data (signal): 553055
HDAC8; peptide conc. 4.12E-08 M, listed as des4.1.0_t1
  HDAC8 activity raw data (signal): 940975
HDAC8; peptide conc. 4.12E-08 M, listed as des4.1.0_t2
  HDAC8 activity raw data (signal): 825924
HDAC8; peptide conc. 4.57E-09 M, listed as des4.1.0_t1
  HDAC8 activity raw data (signal): 958670
HDAC8; peptide conc. 4.57E-09 M, listed as des4.1.0_t2
  HDAC8 activity raw data (signal): 869070
HDAC8; peptide conc. 5.08E-10 M, listed as des4.1.0_t1
  HDAC8 activity raw data (signal): 1026116
HDAC8; peptide conc. 5.08E-10 M, listed as des4.1.0_t2
  HDAC8 activity raw data (signal): 927553
